# The supplement of paper PMC10307832
# Legend:
# Test in all cases: relative viability (nuclei count vs DMSO), 5 days (fraction); higher = more cells survive
# COR-L 105 = test system: COR-L 105
# Method in brief: (§1)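 Values are medians from duplicate plates. Each reflects relative viability, defined as the nuclei count of treated wells over that of vehicle wells. Lung cancer cell lines in 1536-well plates were pin-tool dosed one day after seeding with one drug alone or with a fixed anchor-drug dose plus five library-drug doses (not always all listed) in √10 steps, then fixed, stained and imaged at 4× after 5 days.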
# COR-L23 = test system: COR-L23
# Method in brief: as §1
# EPLC-272H = test system: EPLC-272H
# Method in brief: as §1
# HARA = test system: HARA
# Method in brief: as §1
# HCC-15 = test system: HCC-15
# Method in brief: as §1
# HCC-366 = test system: HCC-366
# Method in brief: as §1
# HCC-44 = test system: HCC-44
# Method in brief: as §1
# HCC-78 = test system: HCC-78
# Method in brief: as §1
# HCC-827 = test system: HCC-827
# Method in brief: as §1
# LCLC-103H = test system: LCLC-103H
# Method in brief: as §1
# NCI-H1395 = test system: NCI-H1395
# Method in brief: as §1
# NCI-H1437 = test system: NCI-H1437
# Method in brief: as §1
# NCI-H1792 = test system: NCI-H1792
# Method in brief: as §1
# NCI-H1944 = test system: NCI-H1944
# Method in brief: as §1
# NCI-H1975 = test system: NCI-H1975
# Method in brief: as §1
# NCI-H2023 = test system: NCI-H2023
# Method in brief: as §1
# NCI-H2085 = test system: NCI-H2085
# Method in brief: as §1
# NCI-H2405 = test system: NCI-H2405
# Method in brief: as §1
# NCI-H358 = test system: NCI-H358
# Method in brief: as §1
# NCI-H661 = test system: NCI-H661
# Method in brief: as §1
# NCI-H727 = test system: NCI-H727
# Method in brief: as §1
# SK-LU-1 = test system: SK-LU-1
# Method in brief: as §1
# UMC-11 = test system: UMC-11
# Method in brief: as §1
smiles,measurement,setting,value
O=C(O)CCCCC(CCSCc1ccccc1)SCc1ccccc1 (stereo not drawn) [CPI-613] + COc1cccc2cc(-c3nc([C@H]4CC[C@H](C(=O)O)CC4)n4ncnc(N)c34)[nH]c12 [OSI-027] (partner 0.5 µM),relative viability,COR-L 105; first compound 5 µM,0.605
same,relative viability,COR-L 105; first compound 15.81 µM,0.407
same,relative viability,COR-L 105; first compound 50 µM,0.49
same,relative viability,COR-L 105; first compound 158.11 µM,0.319
same,relative viability,COR-L 105; first compound 500 µM,0.105
same,relative viability,COR-L23; first compound 5 µM,0.738
same,relative viability,COR-L23; first compound 15.81 µM,0.584
same,relative viability,COR-L23; first compound 50 µM,0.562
same,relative viability,COR-L23; first compound 158.11 µM,0.169
same,relative viability,COR-L23; first compound 500 µM,0.0278
same,relative viability,EPLC-272H; first compound 5 µM,0.279
same,relative viability,EPLC-272H; first compound 15.81 µM,0.307
same,relative viability,EPLC-272H; first compound 50 µM,0.263
same,relative viability,EPLC-272H; first compound 158.11 µM,0.261
same,relative viability,EPLC-272H; first compound 500 µM,0.0195
same,relative viability,HARA; first compound 15.81 µM,0.482
same,relative viability,HARA; first compound 50 µM,0.387
same,relative viability,HARA; first compound 158.11 µM,0.188
same,relative viability,HARA; first compound 500 µM,0.0367
same,relative viability,HCC-15; first compound 5 µM,0.552
same,relative viability,HCC-15; first compound 15.81 µM,0.602
same,relative viability,HCC-15; first compound 50 µM,0.586
same,relative viability,HCC-15; first compound 158.11 µM,0.364
same,relative viability,HCC-15; first compound 500 µM,0.0388
same,relative viability,HCC-366; first compound 5 µM,0.924
same,relative viability,HCC-366; first compound 15.81 µM,0.787
same,relative viability,HCC-366; first compound 50 µM,1.08
same,relative viability,HCC-366; first compound 158.11 µM,0.244
same,relative viability,HCC-366; first compound 500 µM,0.0116
same,relative viability,HCC-44; first compound 5 µM,0.432
same,relative viability,HCC-44; first compound 15.81 µM,0.405
same,relative viability,HCC-44; first compound 50 µM,0.501
same,relative viability,HCC-44; first compound 158.11 µM,0.489
same,relative viability,HCC-44; first compound 500 µM,0.0788
same,relative viability,HCC-78; first compound 5 µM,0.351
same,relative viability,HCC-78; first compound 15.81 µM,0.377
same,relative viability,HCC-78; first compound 50 µM,0.373
same,relative viability,HCC-78; first compound 158.11 µM,0.351
same,relative viability,HCC-78; first compound 500 µM,0.4
same,relative viability,HCC-827; first compound 5 µM,0.745
same,relative viability,HCC-827; first compound 15.81 µM,0.717
same,relative viability,HCC-827; first compound 50 µM,0.673
same,relative viability,HCC-827; first compound 158.11 µM,0.431
same,relative viability,HCC-827; first compound 500 µM,0.48
same,relative viability,LCLC-103H; first compound 5 µM,0.424
same,relative viability,LCLC-103H; first compound 15.81 µM,0.428
same,relative viability,LCLC-103H; first compound 50 µM,0.345
same,relative viability,LCLC-103H; first compound 158.11 µM,0.377
same,relative viability,LCLC-103H; first compound 500 µM,0.317
same,relative viability,NCI-H1395; first compound 5 µM,0.67
same,relative viability,NCI-H1395; first compound 15.81 µM,0.602
same,relative viability,NCI-H1395; first compound 50 µM,0.668
same,relative viability,NCI-H1395; first compound 158.11 µM,0.694
same,relative viability,NCI-H1395; first compound 500 µM,0.568
same,relative viability,NCI-H1437; first compound 5 µM,0.892
same,relative viability,NCI-H1437; first compound 15.81 µM,0.814
same,relative viability,NCI-H1437; first compound 50 µM,0.818
same,relative viability,NCI-H1437; first compound 158.11 µM,0.245
same,relative viability,NCI-H1437; first compound 500 µM,0.0279
same,relative viability,NCI-H1792; first compound 5 µM,0.653
same,relative viability,NCI-H1792; first compound 15.81 µM,0.65
same,relative viability,NCI-H1792; first compound 50 µM,0.693
same,relative viability,NCI-H1792; first compound 158.11 µM,0.666
same,relative viability,NCI-H1792; first compound 500 µM,0.614
same,relative viability,NCI-H1944; first compound 5 µM,0.391
same,relative viability,NCI-H1944; first compound 15.81 µM,0.388
same,relative viability,NCI-H1944; first compound 50 µM,0.351
same,relative viability,NCI-H1944; first compound 158.11 µM,0.274
same,relative viability,NCI-H1944; first compound 500 µM,0.0492
same,relative viability,NCI-H1975; first compound 5 µM,0.693
same,relative viability,NCI-H1975; first compound 15.81 µM,0.589
same,relative viability,NCI-H1975; first compound 50 µM,0.741
same,relative viability,NCI-H1975; first compound 158.11 µM,0.245
same,relative viability,NCI-H1975; first compound 500 µM,0.0526
same,relative viability,NCI-H2023; first compound 5 µM,0.407
same,relative viability,NCI-H2023; first compound 15.81 µM,0.303
same,relative viability,NCI-H2023; first compound 50 µM,0.29
same,relative viability,NCI-H2023; first compound 158.11 µM,0.0518
same,relative viability,NCI-H2023; first compound 500 µM,0.0054
same,relative viability,NCI-H2085; first compound 5 µM,0.727
same,relative viability,NCI-H2085; first compound 15.81 µM,0.659
same,relative viability,NCI-H2085; first compound 50 µM,0.787
same,relative viability,NCI-H2085; first compound 158.11 µM,0.308
same,relative viability,NCI-H2085; first compound 500 µM,0.112
same,relative viability,NCI-H2405; first compound 5 µM,0.638
same,relative viability,NCI-H2405; first compound 15.81 µM,0.582
same,relative viability,NCI-H2405; first compound 50 µM,0.588
same,relative viability,NCI-H2405; first compound 158.11 µM,0.533
same,relative viability,NCI-H2405; first compound 500 µM,0.513
same,relative viability,NCI-H358; first compound 15.81 µM,0.655
same,relative viability,NCI-H358; first compound 50 µM,0.639
same,relative viability,NCI-H358; first compound 158.11 µM,0.303
same,relative viability,NCI-H358; first compound 500 µM,0.0233
same,relative viability,NCI-H661; first compound 5 µM,0.684
same,relative viability,NCI-H661; first compound 15.81 µM,0.601
same,relative viability,NCI-H661; first compound 50 µM,0.597
same,relative viability,NCI-H661; first compound 158.11 µM,0.413
same,relative viability,NCI-H661; first compound 500 µM,0.126
same,relative viability,NCI-H727; first compound 5 µM,0.554
same,relative viability,NCI-H727; first compound 15.81 µM,0.624
same,relative viability,NCI-H727; first compound 50 µM,0.461
same,relative viability,NCI-H727; first compound 158.11 µM,0.339
same,relative viability,NCI-H727; first compound 500 µM,0.334
same,relative viability,SK-LU-1; first compound 5 µM,0.285
same,relative viability,SK-LU-1; first compound 15.81 µM,0.26
same,relative viability,SK-LU-1; first compound 50 µM,0.296
same,relative viability,SK-LU-1; first compound 158.11 µM,0.152
same,relative viability,SK-LU-1; first compound 500 µM,0.0346
same,relative viability,UMC-11; first compound 5 µM,0.407
same,relative viability,UMC-11; first compound 15.81 µM,0.369
same,relative viability,UMC-11; first compound 50 µM,0.426
same,relative viability,UMC-11; first compound 158.11 µM,0.124
same,relative viability,UMC-11; first compound 500 µM,0.118
